molecular target: T1, chimeric human H3 receptor (Homo sapiens, UniProt Q9Y5N1); experiment: Chimeric human H3 receptor screening GTP binding assay (inhibition of histamine-stimulated GTP-gamma35S binding, Example 8); format: biochemical; conditions: 1 h; assay described in Example 8; symbol "!" in column headed Ki; read-out: Ki ("!": percent inhibition of agonist-induced GTP-gammaS binding to H3)
T1 construct: rat Galpha-i2 (Gnai2, rat); made in house; host or cells: Sf9 insect cells (baculovirus); P2 membranes
Procedure, shortened: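 Compound tested at 4 μM against 1 μM histamine stimulation; 125 pM GTP-gamma35S binding measured by filtration and scintillation after 60 min at room temperature. Membranes from Sf9 cells expressing chimeric human H3 plus G-protein subunits, in Tris pH 7.4/NaCl/MgCl2/GDP buffer; values are % inhibition after nonspecific subtraction.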

T1 sequence (Q9Y5N1 with tags, fused parts or gaps): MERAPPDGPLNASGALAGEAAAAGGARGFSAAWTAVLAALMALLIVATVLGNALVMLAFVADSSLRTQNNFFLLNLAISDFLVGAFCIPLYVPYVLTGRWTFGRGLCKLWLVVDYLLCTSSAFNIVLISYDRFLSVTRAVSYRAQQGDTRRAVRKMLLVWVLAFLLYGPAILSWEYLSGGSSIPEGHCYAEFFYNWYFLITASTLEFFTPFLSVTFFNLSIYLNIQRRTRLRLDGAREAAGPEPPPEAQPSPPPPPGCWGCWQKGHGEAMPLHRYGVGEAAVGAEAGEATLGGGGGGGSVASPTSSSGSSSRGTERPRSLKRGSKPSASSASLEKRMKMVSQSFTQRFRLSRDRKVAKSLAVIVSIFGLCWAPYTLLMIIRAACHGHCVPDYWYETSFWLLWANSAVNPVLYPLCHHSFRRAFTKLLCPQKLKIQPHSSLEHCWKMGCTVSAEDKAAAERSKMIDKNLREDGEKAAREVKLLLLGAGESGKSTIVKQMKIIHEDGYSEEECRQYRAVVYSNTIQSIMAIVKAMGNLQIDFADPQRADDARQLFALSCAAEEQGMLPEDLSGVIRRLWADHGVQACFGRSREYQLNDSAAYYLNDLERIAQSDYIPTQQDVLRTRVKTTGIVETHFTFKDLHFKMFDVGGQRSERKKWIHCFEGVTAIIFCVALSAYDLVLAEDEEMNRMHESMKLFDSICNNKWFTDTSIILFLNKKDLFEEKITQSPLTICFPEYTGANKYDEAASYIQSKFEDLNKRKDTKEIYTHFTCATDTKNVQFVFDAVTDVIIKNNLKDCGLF

Structure (SMILES)	inhibition at 4 µM [%]
COc1cccc(/C=C/C(=O)N2CCc3cnc(N4CCN(C5CCC5)CC4)nc3CC2)c1OC [Compound 573, 2-(4-cyclobutylpiperazin-1-yl)-7-[(2E)-3-(2,3-dimethoxyphenyl)prop-2-enoyl]-6,7,8,9-tetrahydro-5H-pyrimido[4,5-d]azepine]	≥ 90
Cc1ccc(N)c(C(=O)N2CCc3cnc(N4CCN(C5CCC5)CC4)nc3CC2)c1 [Compound 539, 2-{[2-(4-cyclobutylpiperazin-1-yl)-5,6,8,9-tetrahydro-7H-pyrimido[4,5-d]azepin-7-yl]carbonyl}-4-methylaniline]	≥ 90
O=C(c1cccc(Cl)c1Cl)N1CCc2cnc(N3CCN(C4CCC4)CC3)nc2CC1 [Compound 440, 2-(4-cyclobutylpiperazin-1-yl)-7-(2,3-dichlorobenzoyl)-6,7,8,9-tetrahydro-5H-pyrimido[4,5-d]azepine]	≥ 90
O=C(/C=C/c1cccc(Cl)c1)N1CCc2cnc(N3CCN(C4CCC4)CC3)nc2CC1 [Compound 552, 7-[(2E)-3-(3-chlorophenyl)prop-2-enoyl]-2-(4-cyclobutylpiperazin-1-yl)-6,7,8,9-tetrahydro-5H-pyrimido[4,5-d]azepine]	≥ 90
COc1cscc1C(=O)N1CCc2cnc(N3CCN(C4CCC4)CC3)nc2CC1 [Compound 456, 2-(4-cyclobutylpiperazin-1-yl)-7-[(4-methoxy-3-thienyl)carbonyl]-6,7,8,9-tetrahydro-5H-pyrimido[4,5-d]azepine]	≥ 90
O=C(c1ccnc2ccccc12)N1CCc2cnc(N3CCN(C4CCC4)CC3)nc2CC1 [Compound 492, 2-(4-cyclobutylpiperazin-1-yl)-7-(quinolin-4-ylcarbonyl)-6,7,8,9-tetrahydro-5H-pyrimido[4,5-d]azepine]	≥ 90
Nc1ccc(C(=O)N2CCc3cnc(N4CCN(C5CCC5)CC4)nc3CC2)cc1 [Compound 533, 4-{[2-(4-cyclobutylpiperazin-1-yl)-5,6,8,9-tetrahydro-7H-pyrimido[4,5-d]azepin-7-yl]carbonyl}aniline]	≥ 90
Cc1cccc(C(=O)N2CCc3cnc(N4CCN(C5CCC5)CC4)nc3CC2)c1F [Compound 388, 2-(4-cyclobutylpiperazin-1-yl)-7-(2-fluoro-3-methylbenzoyl)-6,7,8,9-tetrahydro-5H-pyrimido[4,5-d]azepine]	≥ 90
Cc1ccc(C(=O)N2CCc3cnc(N4CCN(C5CCC5)CC4)nc3CC2)c(C)c1 [Compound 407, 2-(4-cyclobutylpiperazin-1-yl)-7-(2,4-dimethylbenzoyl)-6,7,8,9-tetrahydro-5H-pyrimido[4,5-d]azepine]	≥ 90
O=C(c1ccccc1Oc1ccc(Cl)cc1)N1CCc2cnc(N3CCN(C4CCC4)CC3)nc2CC1 [Compound 419, 7-[2-(4-chlorophenoxy)benzoyl]-2-(4-cyclobutylpiperazin-1-yl)-6,7,8,9-tetrahydro-5H-pyrimido[4,5-d]azepine]	≥ 90

same assay, conditions: 1 h; assay of Example 8; symbol "!" in column headed Ki; read-out: percent inhibition of agonist-induced GTP-gammaS binding to H3

Structure (SMILES)	inhibition at 4 µM [%]
O=C(CC1CCCCC1)N1CCc2cnc(N3CCN(C4CCC4)CC3)nc2CC1 [Compound 211, 2-(4-cyclobutylpiperazin-1-yl)-7-(cyclohexylacetyl)-6,7,8,9-tetrahydro-5H-pyrimido[4,5-d]azepine]	≥ 90
O=C(CCC1CCCC1)N1CCc2cnc(N3CCN(C4CCC4)CC3)nc2CC1 [Compound 212, 2-(4-cyclobutylpiperazin-1-yl)-7-(3-cyclopentylpropanoyl)-6,7,8,9-tetrahydro-5H-pyrimido[4,5-d]azepine]	≥ 90
COc1ccccc1CN1CCc2cnc(N3CCN(C4CCC4)CC3)nc2CC1 [Compound 242, 2-(4-cyclobutylpiperazin-1-yl)-7-(2-methoxybenzyl)-6,7,8,9-tetrahydro-5H-pyrimido[4,5-d]azepine]	≥ 90
Cc1ccccc1C(C(=O)N1CCc2cnc(N3CCN(C4CCC4)CC3)nc2CC1)C(C)C (stereo not shown) [Compound 351, 2-(4-cyclobutylpiperazin-1-yl)-7-[3-methyl-2-(2-methylphenyl)butanoyl]-6,7,8,9-tetrahydro-5H-pyrimido[4,5-d]azepine]	≥ 90
COc1ccc(OC)c(CN2CCc3cnc(N4CCN(C5CCC5)CC4)nc3CC2)c1 [Compound 261, 2-(4-cyclobutylpiperazin-1-yl)-7-(2,5-dimethoxybenzyl)-6,7,8,9-tetrahydro-5H-pyrimido[4,5-d]azepine]	≥ 90
O=C(/C=C/c1ccccc1)N1CCc2cnc(N3CCN(C4CCC4)CC3)nc2CC1 [Compound 225, 2-(4-cyclobutylpiperazin-1-yl)-7-[(2E)-3-phenylprop-2-enoyl]-6,7,8,9-tetrahydro-5H-pyrimido[4,5-d]azepine]	≥ 90
O=C(/C=C/c1c(F)cccc1Cl)N1CCc2cnc(N3CCN(C4CCC4)CC3)nc2CC1 [Compound 585, 7-[(2E)-3-(2-chloro-6-fluorophenyl)prop-2-enoyl]-2-(4-cyclobutylpiperazin-1-yl)-6,7,8,9-tetrahydro-5H-pyrimido[4,5-d]azepine]	≥ 90
Clc1ccccc1CN1CCc2cnc(N3CCN(C4CCC4)CC3)nc2CC1 [Compound 265, 7-(2-chlorobenzyl)-2-(4-cyclobutylpiperazin-1-yl)-6,7,8,9-tetrahydro-5H-pyrimido[4,5-d]azepine]	≥ 90
COc1cc(CC(=O)N2CCc3cnc(N4CCN(C5CCC5)CC4)nc3CC2)cc(OC)c1 [Compound 280, 2-(4-cyclobutylpiperazin-1-yl)-7-[(3,5-dimethoxyphenyl)acetyl]-6,7,8,9-tetrahydro-5H-pyrimido[4,5-d]azepine]	≥ 90
CCn1cncc1CN1CCc2cnc(N3CCN(C4CCC4)CC3)nc2CC1 [Compound 262, 2-(4-cyclobutylpiperazin-1-yl)-7-[(1-ethyl-1H-imidazol-5-yl)methyl]-6,7,8,9-tetrahydro-5H-pyrimido[4,5-d]azepine]	≥ 90
COc1ccccc1CC(=O)N1CCc2cnc(N3CCN(C4CCC4)CC3)nc2CC1 [Compound 306, 2-(4-cyclobutylpiperazin-1-yl)-7-[(2-methoxyphenyl)acetyl]-6,7,8,9-tetrahydro-5H-pyrimido[4,5-d]azepine]	≥ 90
CCC(C)C(=O)N1CCc2cnc(N3CCN(C4CCC4)CC3)nc2CC1 (stereo not shown) [Compound 223, 2-(4-cyclobutylpiperazin-1-yl)-7-(2-methylbutanoyl)-6,7,8,9-tetrahydro-5H-pyrimido[4,5-d]azepine]	≥ 90
CSc1ccc(C(=O)N2CCc3cnc(N4CCN(C5CCC5)CC4)nc3CC2)cc1 [Compound 369, 2-(4-cyclobutylpiperazin-1-yl)-7-[4-(methylthio)benzoyl]-6,7,8,9-tetrahydro-5H-pyrimido[4,5-d]azepine]	≥ 90

same assay, conditions: symbol ! in Ki; test compound 4 μM, 1 μM histamine; read-out: percent inhibition of agonist-induced GTP-gammaS binding to H3

Structure (SMILES)	inhibition at 4 µM [%]
c1ccc(CN2CCc3c(ncnc3N3CCC(N4CCCCC4)CC3)C2)cc1 [Compound 17, 1′-(7-benzyl-5,6,7,8-tetrahydropyrido[3,4-d]pyrimidin-4-yl)-1,4′-bipiperidine]	≥ 90
O=C(C1CC1)N1CCc2c(ncnc2N2CCN(C3CCC3)CC2)C1 [Compound 52, 4-(4-cyclobutylpiperazin-1-yl)-7-(cyclopropylcarbonyl)-5,6,7,8-tetrahydropyrido[3,4-d]pyrimidine]	≥ 90
COc1ccc(C(=O)N2CCc3c(ncnc3N3CCN(C4CCC4)CC3)C2)cc1Cl [Compound 63, 7-(3-chloro-4-methoxybenzoyl)-4-(4-cyclobutylpiperazin-1-yl)-5,6,7,8-tetrahydropyrido[3,4-d]pyrimidine]	≥ 90
O=C(C1CCCC1)N1CCc2c(ncnc2N2CCN(C3CCC3)CC2)C1 [Compound 54, 4-(4-cyclobutylpiperazin-1-yl)-7-(cyclopentylcarbonyl)-5,6,7,8-tetrahydropyrido[3,4-d]pyrimidine]	≥ 90
c1ccc2nc(CN3CCc4ncnc(N5CCN(C6CCC6)CC5)c4CC3)ccc2c1 [Compound 174, 4-(4-cyclobutylpiperazin-1-yl)-7-(quinolin-2-ylmethyl)-6,7,8,9-tetrahydro-5H-pyrimido[4,5-d]azepine]	≥ 90
Cc1ccccc1C(=O)N1CCc2c(ncnc2N2CCN(C3CCC3)CC2)C1 [Compound 25, 4-(4-cyclobutylpiperazin-1-yl)-7-(2-methylbenzoyl)-5,6,7,8-tetrahydropyrido[3,4-d]pyrimidine]	≥ 90
COc1cccc(C(=O)N2CCc3c(ncnc3N3CCN(C4CCC4)CC3)C2)c1 [Compound 26, 4-(4-cyclobutylpiperazin-1-yl)-7-(3-methoxybenzoyl)-5,6,7,8-tetrahydropyrido[3,4-d]pyrimidine]	≥ 90
O=C(c1ccoc1)N1CCc2c(ncnc2N2CCN(C3CCC3)CC2)C1 [Compound 33, 4-(4-cyclobutylpiperazin-1-yl)-7-(3-furoyl)-5,6,7,8-tetrahydropyrido[3,4-d]pyrimidine]	≥ 90
CCN1CCc2ncnc(N3CCN(C4CCC4)CC3)c2CC1 [Compound 160, 4-(4-cyclobutylpiperazin-1-yl)-7-ethyl-6,7,8,9-tetrahydro-5H-pyrimido[4,5-d]azepine]	≥ 90
CC(c1ccc(F)cc1)N1CCc2c(ncnc2N2CCN(C3CCC3)CC2)C1 (stereo not shown) [Compound 104, 4-(4-cyclobutylpiperazin-1-yl)-7-[1-(4-fluorophenyl)ethyl]-5,6,7,8-tetrahydropyrido[3,4-d]pyrimidine]	≥ 90
c1nc2c(c(N3CCN(C4CCC4)CC3)n1)CCN(CC1CC1)C2 [Compound 89, 4-(4-cyclobutylpiperazin-1-yl)-7-(cyclopropylmethyl)-5,6,7,8-tetrahydropyrido[3,4-d]pyrimidine]	≥ 90

— patent US20080051387A1, “TETRAHYDROPYRIDO[3,4-D]PYRIMIDINES AND RELATED ANALOGUES” (priority 2006, published 2008)
